Test results reported in ChEMBL document CHEMBL1201862, “PubChem BioAssay data set” (2004).
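Assay format: 96-well plates, 48-hour exposure. GI50: concentration for 50% inhibition of growth.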 Active and inactive are the calls of the source. Cut-off read from the data, not from the text of the source: active = GI50 up to about 1.1 µM and inactive = higher. Bridge positions count the residues as written; N and C are the ends. Square brackets hold non-standard residues; d marks the D form. Peptide text beside a SMILES is read from it. * marks the point of attachment. Cya = N[CH](CS(=O)(=O)O)C(=O)O; X49 = CC(C)CCCCCCCC(O)CC(=O)*; GABA = NCCCC(=O)O

Columns and labels:
Assay in all cases: DTP human tumour cell line panel, 48 h
SK-OV-3 = test system: SK-OV-3
OVCAR-3 = test system: OVCAR-3
HCC 2998 = test system: HCC 2998
MOLT-4 = test system: MOLT-4
HL-60 = test system: HL-60
SNB-19 = test system: SNB-19
NCI/ADR-RES = test system: NCI/ADR-RES
EKVX = test system: EKVX
OVCAR-4 = test system: OVCAR-4
786-0 = test system: 786-0
MCF7 = test system: MCF7
MDA-MB-435 = test system: MDA-MB-435
NCI-H460 = test system: NCI-H460
UACC-62 = test system: UACC-62
RPMI-8226 = test system: RPMI-8226
MDA-N = test system: MDA-N
SR = test system: SR
HT-29 = test system: HT-29
HCT-15 = test system: HCT-15
M19-MEL = test system: M19-MEL

Structure (SMILES) | GI50 (SK-OV-3) | GI50 (OVCAR-3) | GI50 (HCC 2998) | GI50 (MOLT-4) | GI50 (HL-60) | GI50 (SNB-19) | GI50 (NCI/ADR-RES) | GI50 (EKVX) | GI50 (OVCAR-4) | GI50 (786-0) | GI50 (MCF7) | GI50 (MDA-MB-435) | GI50 (NCI-H460) | GI50 (UACC-62) | GI50 (RPMI-8226) | GI50 (MDA-N) | GI50 (SR) | GI50 (HT-29) | GI50 (HCT-15) [µM] | GI50 (M19-MEL)
Cc1cc(S(=O)(=O)Nc2nc(N)n(-c3ccccc3)n2)c(S)cc1Cl | > 100 µM (inactive) | > 100 µM (inactive) | > 100 µM (inactive) | > 100 µM (inactive) | > 100 µM (inactive) | 43.1 µM (inactive) | > 100 µM (inactive) | > 100 µM (inactive) | > 100 µM (inactive) | > 100 µM (inactive) | > 100 µM (inactive) | > 100 µM (inactive) | > 100 µM (inactive) | > 100 µM (inactive) | > 100 µM (inactive) | > 100 µM (inactive) | > 100 µM (inactive) | > 100 µM (inactive) | > 100 | –
CSc1ccc(NC(=O)C2CCCCC2C(=O)O)cc1 (centres undefined) | > 100 µM (inactive) | > 100 µM (inactive) | > 100 µM (inactive) | 38.6 µM (inactive) | > 100 µM (inactive) | > 100 µM (inactive) | > 100 µM (inactive) | > 100 µM (inactive) | > 100 µM (inactive) | > 100 µM (inactive) | > 100 µM (inactive) | > 100 µM (inactive) | > 100 µM (inactive) | > 100 µM (inactive) | > 100 µM (inactive) | > 100 µM (inactive) | > 100 µM (inactive) | > 100 µM (inactive) | > 100 | –
CC(=O)c1sc2c(c1OC(=O)c1ccccc1)c(=O)n(-c1ccccc1)c(=S)n2-c1ccccc1 | 4.14 µM (inactive) | 17.9 µM (inactive) | 17.3 µM (inactive) | 2.26 µM (inactive) | 34 µM (inactive) | 4.84 µM (inactive) | 4.65 µM (inactive) | 15.9 µM (inactive) | 20.4 µM (inactive) | 2.9 µM (inactive) | 35.7 µM (inactive) | 4.24 µM (inactive) | 11.2 µM (inactive) | 13.4 µM (inactive) | 3.12 µM (inactive) | 6.4 µM (inactive) | 3.95 µM (inactive) | 2.93 µM (inactive) | 18 | –
O=C(NCCOCCO)c1ccc(O)cc1 | > 100 µM (inactive) | – | – | > 100 µM (inactive) | > 100 µM (inactive) | – | – | 20.4 µM (inactive) | – | > 100 µM (inactive) | – | – | > 100 µM (inactive) | > 100 µM (inactive) | > 100 µM (inactive) | – | – | – | > 100 | > 100 µM (inactive)
O=c1c2ncn(CCCl)c2n(-c2ccccc2)c(=S)n1-c1ccccc1 | > 100 µM (inactive) | > 100 µM (inactive) | > 100 µM (inactive) | > 100 µM (inactive) | > 100 µM (inactive) | > 100 µM (inactive) | > 100 µM (inactive) | > 100 µM (inactive) | > 100 µM (inactive) | > 100 µM (inactive) | > 100 µM (inactive) | > 100 µM (inactive) | > 100 µM (inactive) | > 100 µM (inactive) | > 100 µM (inactive) | > 100 µM (inactive) | > 100 µM (inactive) | > 100 µM (inactive) | > 100 | –
O=C1OC(/C=C/c2ccccc2)C(=O)C1=O (centres undefined) | > 100 µM (inactive) | – | > 100 µM (inactive) | > 100 µM (inactive) | > 100 µM (inactive) | > 100 µM (inactive) | – | > 100 µM (inactive) | > 100 µM (inactive) | > 100 µM (inactive) | – | – | > 100 µM (inactive) | > 100 µM (inactive) | > 100 µM (inactive) | – | – | > 100 µM (inactive) | > 100 | > 100 µM (inactive)
CN(C)c1ccc(/C=c2\sc3nc4ccccc4n3c2=O)cc1 | – | > 100 µM (inactive) | > 100 µM (inactive) | – | > 100 µM (inactive) | > 100 µM (inactive) | – | > 100 µM (inactive) | > 100 µM (inactive) | > 100 µM (inactive) | – | – | > 100 µM (inactive) | > 100 µM (inactive) | – | – | – | > 100 µM (inactive) | > 100 | > 100 µM (inactive)
CCCCCCCCCCCCCCCCOC(=O)C(C(=O)OCCCCCCCCCCCCCCCC)[N+](C)(C)CCOC(C)=O | 17.8 µM (inactive) | 16.7 µM (inactive) | 11.4 µM (inactive) | – | 2.11 µM (inactive) | 13.4 µM (inactive) | – | 21 µM (inactive) | 15.9 µM (inactive) | 14.3 µM (inactive) | – | – | 28.1 µM (inactive) | 21.5 µM (inactive) | – | – | – | 11.1 µM (inactive) | 22.1 | 13.9 µM (inactive)
c1ccc(/N=C2\c3ccccc3C3=NCCCN32)cc1 | – | 75 µM (inactive) | 49.7 µM (inactive) | 39.4 µM (inactive) | – | 85.9 µM (inactive) | – | 30.6 µM (inactive) | 42.2 µM (inactive) | 90.4 µM (inactive) | – | – | 55.1 µM (inactive) | 61.5 µM (inactive) | 30.5 µM (inactive) | – | – | 31.1 µM (inactive) | 35.6 | 53.6 µM (inactive)
COC(=O)c1ccccc1C1CN=NC12Cc1cc(C)ccc1C2=O (centres undefined) | > 100 µM (inactive) | 57 µM (inactive) | > 100 µM (inactive) | > 100 µM (inactive) | 92.7 µM (inactive) | > 100 µM (inactive) | 49.9 µM (inactive) | > 100 µM (inactive) | > 100 µM (inactive) | > 100 µM (inactive) | 3.58 µM (inactive) | 62.4 µM (inactive) | > 100 µM (inactive) | > 100 µM (inactive) | > 100 µM (inactive) | 72.9 µM (inactive) | > 100 µM (inactive) | > 100 µM (inactive) | > 100 | –
C=CCNC1=C2C[C@@H](C)C[C@@H](OC)C(OC(=O)CCCN(C)C)[C@H](C)/C=C(\C)[C@@H](OC(N)=O)[C@H](OC)/C=C\C=C(/C)C(=O)NC(=CC1=O)C2=O (some centres undefined) | 2.37 µM (inactive) | 3.3 µM (inactive) | 4.6 µM (inactive) | 5.75 µM (inactive) | 5.51 µM (inactive) | 13.8 µM (inactive) | 21.8 µM (inactive) | 13.1 µM (inactive) | 9.14 µM (inactive) | 12.4 µM (inactive) | 2.02 µM (inactive) | 10.6 µM (inactive) | 2.99 µM (inactive) | 12.4 µM (inactive) | 6.49 µM (inactive) | 7.26 µM (inactive) | 2.59 µM (inactive) | 2.7 µM (inactive) | 6.32 | –
Cn1c(-c2ccccc2)cc(-c2ccc3c(c2)OCO3)c1-c1ccsc1 | > 100 µM (inactive) | > 100 µM (inactive) | > 100 µM (inactive) | > 100 µM (inactive) | > 100 µM (inactive) | > 100 µM (inactive) | > 100 µM (inactive) | > 100 µM (inactive) | > 100 µM (inactive) | > 100 µM (inactive) | > 100 µM (inactive) | > 100 µM (inactive) | > 100 µM (inactive) | > 100 µM (inactive) | > 100 µM (inactive) | > 100 µM (inactive) | > 100 µM (inactive) | > 100 µM (inactive) | > 100 | –
Cn1nc(-c2ccccc2)c2c(/C=C/c3ccc(F)cc3)onc2c1=O | 50 µM (inactive) | – | – | > 100 µM (inactive) | 5.92 µM (inactive) | – | – | > 100 µM (inactive) | – | 11.1 µM (inactive) | – | – | > 100 µM (inactive) | > 100 µM (inactive) | > 100 µM (inactive) | – | – | 29.3 µM (inactive) | 39.5 | > 100 µM (inactive)
COc1ccc(C2CCc3cc4c(cc3/C2=N/OC(C)=O)OCO4)cc1OC (centres undefined) | 28.8 µM (inactive) | 15.3 µM (inactive) | – | 15.8 µM (inactive) | – | 39.3 µM (inactive) | – | 29.2 µM (inactive) | 27.1 µM (inactive) | 32.5 µM (inactive) | – | – | – | 18.2 µM (inactive) | 12.6 µM (inactive) | – | – | 36.2 µM (inactive) | 30.3 | 22.1 µM (inactive)
Cc1cc(Cl)cc2c1NC(=O)C2=O.O=C(c1ccccc1)C(F)(F)F | > 100 µM (inactive) | 35.3 µM (inactive) | > 100 µM (inactive) | 20.1 µM (inactive) | – | 72.4 µM (inactive) | – | 49 µM (inactive) | 33 µM (inactive) | 70.1 µM (inactive) | – | – | 70.5 µM (inactive) | 19.9 µM (inactive) | – | – | – | 78 µM (inactive) | 64.4 | 13.3 µM (inactive)
CCCCCCOc1ccc(C(=O)NOCc2ccccc2)cc1 | > 100 µM (inactive) | > 100 µM (inactive) | > 100 µM (inactive) | 79.6 µM (inactive) | 39.7 µM (inactive) | > 100 µM (inactive) | > 100 µM (inactive) | > 100 µM (inactive) | > 100 µM (inactive) | > 100 µM (inactive) | > 100 µM (inactive) | 41.3 µM (inactive) | > 100 µM (inactive) | > 100 µM (inactive) | 42.2 µM (inactive) | 45.8 µM (inactive) | 18.5 µM (inactive) | > 100 µM (inactive) | 63.8 | –
CC(C)CCCCCCCC(O)CC(=O)NC(CS(=O)(=O)O)C(=O)NC(CC(C)C)C(=O)NCCCC(=O)NC(Cc1c[nH]cn1)C(=O)NC(C)C(=O)NC1C(=O)NC(C(C)O)C(=O)NC(Cc2c[nH]cn2)C(=O)NC(C)C(=O)NC(C(C)O)C(=O)OC1C (centres undefined) (X49-[Cya]L[GABA]HATTHAT; ester 6-C; configuration not given here) | > 25 µM (inactive) | > 25 µM (inactive) | > 25 µM (inactive) | > 25 µM (inactive) | > 25 µM (inactive) | > 25 µM (inactive) | > 25 µM (inactive) | > 25 µM (inactive) | > 25 µM (inactive) | > 25 µM (inactive) | > 25 µM (inactive) | > 25 µM (inactive) | > 25 µM (inactive) | > 25 µM (inactive) | > 25 µM (inactive) | > 25 µM (inactive) | 17.5 µM (inactive) | > 25 µM (inactive) | > 25 | –
